Source: patent US20260335282A1, “NOVEL 3-ARYLIDENE-2-INDOLINONE DERIVATIVES FOR THERAPEUTIC USE” (ISTANBUL UNIVERSITESI REKTORLUGU, priority 2022, published 2026)
“And” between values parts separate entries of the source, which are not always exact repeats. Identical values can stand only once. Like-named read-outs stand apart in the source and are kept apart here.

Columns and labels:
Assay type in all cases: cell-based, human
MCF-7 cells = assay: MTT cytotoxicity, breast cancer cells MCF-7; conditions: MTT
Description: (§1) The cytotoxicity, general tyrosine kinase inhibitory effects and cell death (apoptosis/necrosis) assays of 1-benzyl-3-(1H-indol-3-ylmethylidene)-1,3-dihydro-2H-indol-2-one derivatives (Formula 5) of the present invention are studied by the following methods. […] HUVEC (human umbilical vein endothelial cell), MCF-10F (human breast epithelial cell) and Beas2b (human lung bronchial epithelial cell) cell lines have been used as healthy control cells in MTT experiments.
(§2) Beas2b (human lung bronchiole epithelial cell) and HEK293 (renal tubule epithelium) cells used as normal cell lines were cultured in RPMI medium, and HUVEC (human umbilical cord endothelial cells) and MCF-10F (human breast epithelial cell) cells are cultured in DMEM medium containing 100 µg/ml penicillin/streptomycin. The cells, which covered 70% of the culture flask, are washed with phosphate buffer and then removed from the surface of the flask by application of trypsin-ethylenediamine tetraacetic acid (Trypsin-EDTA; 0.25%) solution, passaged, counted and seeded on appropriate plates before each experiment. Cells are treated with a total of 45 2-indolinone compounds (5) at concentrations of 0.1, 1, 5 and 10 μM. Stock compounds are prepared in 1 ml dimethylsulfoxide (DMSO) and 4 different dilutions were prepared with medium and performed to the cells. Control group cells are treated with DMSO at a similar concentration to the experimental groups.
(§3) MTT (3-(4,5-dimethylthiazol-2-yl)-2,5-diphenyl-2H-tetrazolium bromide) colorimetric assay provides quantitation of viable cells with ongoing mitochondrial activity in culture medium. According to the standard procedure in cell culture conditions, cells are maintained in RPMI-1640 and DMEM culture media containing 10% FBS and 1% penicillin/streptomycin. The trypan blue test is used for cell counts.
(§4) The effects of 45 2-indolinone compounds (5) on cell viability in all cancer cell lines are investigated by MTT assay. Cells are seeded in a 96-well flat bottom plate with 5000 cells in each well and 2-indolinone compounds (5) at concentrations of 0.1, 1, 5 and 10 μM are performed to the cells the next day. After 48 and/or 72 hours following treatment with 2-indolinone compounds, 50 μl of the supernatant is slowly discarded (as it was acid medium) and MTT at a concentration of 5 mg/ml is added to each well in a volume of 10 μl. After incubation for 4 hours, the formazan crystals formed in the wells are dissolved by adding 100 μl DMSO and the optical density is read at 570 nm test wavelength and 630 nm reference wavelength. Cell viability is expressed as % cell viability by comparing the absorbance of control and test wells. IC50 value is calculated from the dose-response curves prepared for each compound. In addition, the possible DMSO effect is eliminated by preparing negative control wells compatible with the amount of DMSO contained in the compounds. To understand the reaction of the compounds with MTT, cell-free (MTT+compounds) negative controls are prepared at the concentrations used (Mosmann, 1983). […] The absorbance values obtained are compared to the control and statistically evaluated by unpaired t-test using “Graphpad Prism 5.04” software. “P<0.05” is accepted as significant. When evaluating cytotoxic effects, the present inventors aim for the inventive compounds to be effective in cancer cells and ineffective in healthy cells. The inventive compounds have also been compared with sunitinib, one of the reference chemotherapy drugs currently used in treatment.
(§5) Among the compounds of the present invention, those that killed cancer cells by at least 50% (p<0.05) are selected and tested whether a 10-fold concentration of the M concentration at the IC50 value is toxic to normal healthy cells.

MDA-MB-231 cells = assay: MTT cytotoxicity, breast cancer cells MDA-MB-231; conditions: read-out: IC50, MDA-MB-231 (breast), MTT
Description: as §1, §2, §3, §4, §5

A549 cells = assay: MTT cytotoxicity, lung cancer cells A549; conditions: no * mark (incubation time not specified)
Description: as §1, §2, §3, §4, §5

CAKI-1 cells = assay: MTT cytotoxicity, kidney cancer cells CAKI-1
Description: as §1, §2, §3, §4, §5

A498 cells = assay: MTT cytotoxicity, kidney cancer cells A498; conditions: MTT
Description: as §1, §2, §3, §4, §5

MCF-10F/Beas2b cells = assay: MTT cytotoxicity, healthy cells MCF-10F/Beas2b; conditions: for IC50: MTT; for Selectivite Index, MCF-10F/Beas2b (Table 2): MCF-10F/Beas2b vs colon or pancreas cancer cells
Description: as §1, §2, §3, §4, §5

HUVEC cells = assay: MTT cytotoxicity, healthy cells HUVEC; conditions: for IC50: MTT; for Selectivite Index, HUVEC (Table 2): HUVEC vs colon or pancreas cancer cells
Description: as §1, §2, §3, §4, §5

HT-29 cells = assay: MTT cytotoxicity, colon cancer cells HT-29; conditions: MTT, no * mark (incubation time not specified)
Description: as §1, §2, §3, §4

HCT-116 cells = assay: MTT cytotoxicity, colon cancer cells HCT-116; conditions: no * mark (incubation time not specified)
Description: as §1, §2, §3, §4

MIAPaCa-2 cells = assay: MTT cytotoxicity, pancreas cancer cells MIAPaCa-2; conditions: for IC50: MTT
Description: as §1, §2, §3, §4

[1] = system: general tyrosine kinase activity in MIA PaCa-2 pancreas cancer cells; assay: General tyrosine kinase activity (ELISA) in MIAPaCa-2 cells; conditions: 72 hours, IC50 concentration
Experimental: Takara Universal Tyrosine Kinase Assay Kit is used to determine the effects of 11 2-indolinone compounds (Y1, Y2, Y3, Y4, Y5, Y8, […], […], Y21, Y23, 20C, 22C) on general tyrosine kinase activity in cancer cells. Cells are seeded in 6-well plates (4.10^5 cells/well) and the IC50 concentration of each selected molecule is performed to the cells for 48 or 72 hours. Cells in the control group are incubated with medium only. At the end of the incubation period, the cells in each well are washed with PBS and cells are removed from the wells using a cell scraper via 1 ml of the extraction buffer in the kit. The cell lysate is transferred to ependorf tubes and centrifuged at 10.000 g for 10 minutes at +4° C. and the supernatant is used as a sample for activity determination. After the extracts obtained from the control and experimental groups are diluted 1:25, 40 μl extracts is transferred to two wells in the 96-well plate in the kit. In addition, the standard solution in the kit is diluted according to the kit instructions and each concentration is transferred 40 μl into three wells. 10 μl of 40 mM ATP-2Na solution is added to all wells and the plate is incubated at 37° C. for 30 minutes. After incubation, all wells are washed 4 times with wash buffer. 100 μl of blocking solution is added to each well and incubated again at 37° C. for 30 minutes. After incubation, the liquid in the wells is discarded and 50 μl of anti-phosphotyrosine-HRP solution is added to each well and incubated at 37° C. for 30 minutes. The wells are washed again four times with wash buffer and 100 μl of HRP-substrate solution (TMBZ) is added to each well and incubated at 37° C. for 15 minutes. The reaction is finished by adding 100 μl of stop solution to each well and the optical density in each well is measured at 405 nm with a microplate reader (BioTek, USA). The tyrosine kinase activity in each sample is calculated from the standard curve obtained from the absorbance values of the standard solutions with the kit (Chan W Y, Lau P M, Yeung K W, Kong S K. The second generation tyrosine kinase inhibitor dasatinib induced eryptosis in human erythrocytes—An in vitro study. Toxicol Lett. 2018; 295:10-21). This activity is normalized compared to the control group by dividing by the amount of protein in each sample.
The effects of 11 2-indolinone compounds (Y1, Y2, Y3, Y4, Y5, Y8, Y14, Y21, Y23, 20C and 22C) having the structure of formula (5), which are prominent with their cytotoxicity in A498, MIAPaCa-2 and HCT-116 cancer cell lines and nontoxic properties in healthy cells, on general tyrosine kinase activity in cancer cells are determined.

[2] = no * mark (incubation time not specified)
[3] = no * mark (incubation time not given)
[4] = *: effective 72 hours after incubation

Row | SMILES | IC50 (MCF-7 cells; [2]) | IC50 (MDA-MB-231 cells; [3]) | IC50 (A549 cells) | IC50 (CAKI-1 cells; [4]) | IC50 (A498 cells; [2]) | IC50 (MCF-10F/Beas2b cells; [2]) | IC50 (HT-29 cells) | IC50 (HCT-116 cells) | IC50 (MIAPaCa-2 cells; [2]) | IC50 (CAKI-1 cells; [2]) | IC50 (HUVEC cells; [2]) | Selectivite Index, MCF-10F/Beas2b (Table 2) (MCF-10F/Beas2b cells; cancer line not given) | Selectivite Index, HUVEC (Table 2) (HUVEC cells; cancer line not given) | IC50 (A498 cells; [4]) | further results
1 | O=C1/C(=C\c2c[nH]c3ccccc23)c2cccc(F)c2N1Cc1cccc(Cl)c1 [32C] | 3.86 µM | 4.53 µM | > 10 µM | 8.76 µM | 8.26 µM | 1.35 µM | 1.65 µM | 4.31 µM | 1.35 µM | – | – | – | – | – | IC50 (HUVEC cells; [4]): 1 µM
2 | Cc1cccc(CN2C(=O)/C(=C\c3c[nH]c4ccccc34)c3cc(F)ccc32)c1 [13C] | > 10 µM | > 10 µM | 3.43 µM | – | 2.66 µM | 2.63 µM | > 10 µM | > 10 µM | – | > 10 µM | 2.24 µM | – | – | – | IC50 (MIAPaCa-2 cells; [4]): 1.51 µM
3 | O=C1/C(=C\c2c[nH]c3ccccc23)c2cccc(F)c2N1Cc1ccc(F)cc1 [31C] | 7.1 µM | – | 3.64 µM | 9.14 µM | 2.85 µM | 4.42 µM | 3.95 µM | 0.39 µM | 0.73 µM | – | 1.26 µM | 11.33 and 6.05 | 3.23 and 1.72 | – | IC50 (MDA-MB-231 cells; [4]): 9.09 µM
4 | Cc1cccc(CN2C(=O)/C(=C\c3c[nH]c4ccccc34)c3cc(C)ccc32)c1 [48C] | – | > 10 µM | 3 µM | 3.46 µM | – | 3.35 µM | 1.46 µM | 0.6 µM | 2.02 µM | – | 1.07 µM | – | – | 0.73 µM | IC50 (MCF-7 cells; [4]): 3.96 µM; IC50 (MCF-10F/Beas2b cells; [4]): 3.35 µM
5 | Cc1ccc(CN2C(=O)/C(=C\c3c[nH]c4ccccc34)c3ccccc32)cc1 [Y21] | 8.77 µM | > 10 µM | > 10 µM | – | 4.06 µM | – | > 10 µM | 3.14 µM | 0.4 µM | > 10 µM | 2.46 µM | > 25.00 | 6.15 | – | selectivity index (MIAPaCa-2 cells; MCF-10F/Beas2b vs MIAPaCa-2): > 25; IC50 (MIAPaCa-2 cells): 0.4 µM; general tyrosine kinase activity compared to control [1]: significantly decreased
6 | O=C1/C(=C\c2c[nH]c3ccccc23)c2cc(OC(F)(F)F)ccc2N1Cc1ccc(Cl)cc1 [5C] | – | – | 2.96 µM | 6.98 µM | – | 3.46 µM | 0.44 µM | 1.97 µM | > 10 µM | – | 2.72 µM | 7.86 | 6.18 | 2.26 µM | IC50 (MCF-7 cells; [4]): 3.84 µM; IC50 (MDA-MB-231 cells; [4]): 5.8 µM
7 | Cc1ccc(CN2C(=O)/C(=C\c3c[nH]c4ccccc34)c3cc(Cl)ccc32)cc1 [Y22] | > 10 µM | > 10 µM | > 10 µM | – | > 10 µM | 1.1 µM | > 10 µM | 2.34 µM | 0.49 µM | > 10 µM | 2.34 µM | – | – | – | –
8 | Cc1ccc(CN2C(=O)/C(=C\c3c[nH]c4ccccc34)c3cccc(Cl)c32)cc1 [28C] | > 10 µM | > 10 µM | > 10 µM | 7.66 µM | – | – | > 10 µM | > 10 µM | > 10 µM | – | > 10 µM | – | – | 0.6 µM | Selectivite Index (SI), MCF-10F/Beas2b (Table 1) (MCF-10F/Beas2b cells; MCF-10F/Beas2b vs breast or kidney cancer cells, cancer line not given): 1.5; IC50 (MCF-10F/Beas2b cells; [4]): 1.78 µM; Selectivite Index (SI), HUVEC (Table 1) (HUVEC cells; HUVEC vs breast or kidney cancer cells, cancer line not given): > 15.6
9 | Cc1cccc(CN2C(=O)/C(=C\c3c[nH]c4ccccc34)c3ccccc32)c1 [50C] | – | 4.3 µM | 4.6 µM | – | – | 4.37 µM | 1.49 µM | 0.5 µM | 2.96 µM | 4.96 µM | 0.86 µM | 8.74 | 1.72 | 3.85 µM | IC50 (MCF-7 cells; [4]): 4.15 µM
10 | O=C1/C(=C\c2c[nH]c3ccccc23)c2cc(Cl)cc(Cl)c2N1Cc1ccccc1 [36C] | > 10 µM | > 10 µM | 2.35 µM | 4.01 µM | – | – | > 10 µM | 2.51 µM | 0.46 µM | – | 2.24 µM | 7.83 | 4.87 | 1.46 µM | IC50 (MCF-10F/Beas2b cells; [4]): 3.6 µM
11 | O=C1/C(=C\c2c[nH]c3ccccc23)c2cccc(Cl)c2N1Cc1cccc(Cl)c1 [25C] | 4.5 µM | > 10 µM | > 10 µM | 8.07 µM | 2.91 µM | 1.81 µM | > 10 µM | 2.9 µM | – | – | 1.81 µM | – | – | – | IC50 (MIAPaCa-2 cells; [4]): 3.23 µM
12 | O=C1/C(=C\c2c[nH]c3ccccc23)c2cc(OC(F)(F)F)ccc2N1Cc1ccc(F)cc1 [3C] | 5.06 µM | 2.27 µM | 4.22 µM | – | – | 2.98 µM | 1.38 µM | 5.74 µM | – | 3.7 µM | 4.3 µM | – | – | 7.53 µM | IC50 (MIAPaCa-2 cells; [4]): 0.95 µM
